Assay results from patent US20210154161A1, “MODIFIED-RELEASE BUCILLAMINE COMPOSITIONS, KITS, AND METHODS FOR TREATING CYSTINURIA, ARTHRITIS, GOUT, AND RELATED DISORDERS” (ALTIBIO, INC., priority 2017, published 2021).

Assays:
[1] = Short- and long-term stability of bucillamine in Beagle dog urine; assay type: in vitro ADME
Experimental: (§1) For the analysis, analytical stock solutions (1.00 mg/mL of the free drug) were prepared in DMSO. Also, three standards for use in the analysis were prepared in each of the following media, as follows: (1) in male Beagle plasma containing sodium heparin as the anticoagulant; (2) in Beagle plasma that had previously been treated with acetonitrile to precipitate and remove plasma proteins (the […] supernatant was diluted with acetonitrile (3:1 acetonitrile:plasma supernatant) to give pre-crashed Beagle plasma supernatant); and (3) in 10× diluted Beagle urine, diluted in water. The term “pre-crashed plasma” refers to plasma supernatant, obtained in the centrifugation step described above.
Samples were considered stable if their concentrations were within ±20% of nominal. These samples met acceptable criteria for stability and results are presented below, in Tables 5, 6, and 7, showing the % bucillamine remaining in Beagle dog plasma (Table 5), plasma supernatant (Table 6), and urine (Table 7).

[2] = Free bucillamine plasma concentration after oral or intraduodenal dosing regimens; assay type: in vivo, male Beagle dogs; details: for maximum plasma concentrations of free bucillamine (average): n=3 dogs
Experimental: (§2) The objective of this study was to evaluate total and free plasma bucillamine, and urinary bucillamine, in male Beagle dogs following oral and intraduodenal administration of bucillamine, according to various dose regimens, to determine whether different regimens, simulating modified release in accordance with the present invention, would improve drug pharmacokinetics. Specifically, bucillamine formulations were administered to deliver 30 mg/kg per dog via single or multiple doses divided over a 12-hour period; and blood and urine samples then collected at different times post-dose.
(§3) Bucillamine formulations were administered to provide 30 mg/kg per dog according to five different dosage regimens (Leg 1, Leg 2, Leg 3, Leg 4, and Leg 5), as set forth in the table below. Leg 2, Leg 3, and Leg 4 (also referred to as Q6H, Q3H, and Q2H, respectively) were designed to simulate modified-release formulations, in accordance with certain embodiments of the present invention. Following administration, blood and urine samples were collected at the time points, or over the time intervals, also as indicated below.
(§4) Preparation of Dosing Formulations: Capsules for Legs 1-5 were prepared and filled on the day of dosing, as follows. For Legs 1, 2, and 5, bucillamine was dry mixed with avicel and mannitol to make a 40:30:30 mixture of bucillamine to avicel to mannitol, respectively; for study Legs 3 and 4, a 20:40:40 mixture of bucillamine to avicel to mannitol, respectively, was prepared. The dry mixes were custom filled with the appropriate amount of powder to deliver the specified doses to each dog based, on their respective body weights.
(§5) Animal Dosing and Sample Collection: This non-clinical study followed established practices and standard operating procedures of Absorption Systems and Absorption Systems Inc., as well as the study protocol. Study groups each included three dogs. The dogs were housed one per cage. For Legs 1-4, the dogs were fasted for at least six hours prior to each administration of the formulation. For Legs 1-4, food was given approximately ten hours post initial dosing. Animals had free access to water throughout the study. For Leg 5, the dogs were fasted for at least sixteen hours prior to each administration of the formulation. For Leg 5, food was given approximately eight hours post initial dosing. Animals had free access to water throughout the study. Additionally, each dog received a 60 mL subcutaneous injection of saline (a 30 mL injection, into each two different sites) approximately 30 minutes prior to dosing, for hydration.
(§6) Intraduodenal (ID) administration: Animals were anesthetized by a slow IV infusion of Propofol (6-10 mg/kg), or with an intramuscular injection of a cocktail containing ketamine (approximately 10-20 mg/kg), diazepam (3 mg/kg), and acepromazine (0.05 mg/kg) given IM about 5-10 minutes before intubation. Once animals were confirmed adequately anesthetized, they were intubated and maintained using isoflurane (approximately 1-5% in oxygen 1 to 4 L/min) as necessary until dosing was complete. Formulations were administered into the proximal duodenum via endoscopic guidance to verify the dosing site. The endoscope first was maneuvered into the pyloric sphincter with camera visualization of the proximal duodenum. Once there was confirmation that the endoscope was placed between the pylorus and proximal duodenum, the test article was delivered to the proximal duodenum followed by a 5 mL flush. Upon completion of the dosing, the animals were taken off the isoflurane and allowed to recover from anesthesia. Time points began upon completion of the entire dose procedure. Following each blood sampling time point, 15 mL of water was given to each dog via syringe. Approximately 30 minutes prior to the 0 hour blood collection, each dog received a subcutaneous injection of 60 mL of saline (a 30 mL injection into each of two different sites) for hydration. […]

[3] = Short- and long-term stability of bucillamine in Beagle dog plasma supernatant (pre-crashed plasma); assay type: in vitro ADME
Experimental: as §1
Stability Testing: Finally, short-term and long-term stability of bucillamine in Beagle dog plasma, pre-crashed plasma (plasma supernatant), and urine were assessed using two bucillamine concentrations (50 ng/mL or 500 ng/mL) under each of the following two conditions: (1) storage on the bench top for 4 hours and (2) frozen at −80° C. for up to one month. Samples were considered stable if their concentrations were within ±20% of nominal. These samples met acceptable criteria for stability and results are presented below, in Tables 5, 6, and 7, showing the % bucillamine remaining in Beagle dog plasma (Table 5), plasma supernatant (Table 6), and urine (Table 7).

[4] = Bucillamine urinary recovery after oral or intraduodenal dosing regimens; assay type: in vivo, male Beagle dogs; details: for % of the dose (unchanged drug) found in urine, on average: n=3 dogs
Experimental: as §2, §3, §4, §5, §6

[5] = majority of patients; 1,800 mg bucillamine over 7 days; 72 hours post-dose; without rescue drug; cited from earlier work
[6] = Leg 1 (Q12H): PO, single 30 mg/kg dose
[7] = Leg 2: PO 30 mg/kg as two 15 mg/kg doses at 0 and 6 h
[8] = Leg 3 (Q3H): PO 30 mg/kg as four 7.5 mg/kg doses at 0, 3, 6, 9 h
[9] = Leg 4: PO 30 mg/kg as six 5 mg/kg doses at 0, 2, 4, 6, 8, 10 h
[10] = Leg 5: ID, single 30 mg/kg dose

CC(C)(S)C(=O)N[C@@H](CS)C(=O)O [bucillamine, N-(2-mercapto-2-methylpropionyl)-L-cysteine]
% Bucillamine Remaining in Beagle Dog Urine ([1]; High (2500 ng/mL), -80 C freezer for 1 week): 102%
% Bucillamine Remaining in Beagle Dog Urine ([1]; High (2500 ng/mL), -80 C freezer for 2 week): 101%
% Bucillamine Remaining in Beagle Dog Urine ([1]; High (2500 ng/mL), -80 C freezer for 4 week): 96.3%
% Bucillamine Remaining in Beagle Dog Urine ([1]; High (2500 ng/mL), bench top (RT) for 4 hours): 102%
% Bucillamine Remaining in Beagle Dog Urine ([1]; Low (250 ng/mL), -80 C freezer for 1 week): 97.7%
% Bucillamine Remaining in Beagle Dog Urine ([1]; Low (250 ng/mL), -80 C freezer for 2 week): 90.9%
% Bucillamine Remaining in Beagle Dog Urine ([1]; Low (250 ng/mL), -80 C freezer for 4 week): 88.9%
% Bucillamine Remaining in Beagle Dog Urine ([1]; Low (250 ng/mL), bench top (RT) for 4 hours): 93.7%
time at which maximum plasma concentrations of free bucillamine were observed [2, 6]: 2 hours post dosing
maximum plasma concentrations of free bucillamine (average) [2, 6]: 2437 ± 728 ng/mL
maximum plasma concentrations of free bucillamine (average) [2, 7]: 3957 ± 1226 ng/mL
maximum plasma concentrations of free bucillamine (average) [2, 8]: 4327 ± 1127 ng/mL
maximum plasma concentrations of free bucillamine (average) [2, 9]: 1820 ± 471 ng/mL
maximum plasma concentrations of free bucillamine (average) [2, 10]: 1187 ± 656 ng/mL
% Bucillamine Remaining in Beagle Dog Plasma Supernatant ([3]; 50 ng/mL (low), -80 C freezer for 1 week): 94.3%
% Bucillamine Remaining in Beagle Dog Plasma Supernatant ([3]; 50 ng/mL (low), -80 C freezer for 2 week): 99.1%
% Bucillamine Remaining in Beagle Dog Plasma Supernatant ([3]; 50 ng/mL (low), -80 C freezer for 4 week): 107%
% Bucillamine Remaining in Beagle Dog Plasma Supernatant ([3]; 50 ng/mL (low), bench top (RT) for 4 hours): 105%
% Bucillamine Remaining in Beagle Dog Plasma Supernatant ([3]; 500 ng/mL (high), -80 C freezer for 1 week): 97.2%
% Bucillamine Remaining in Beagle Dog Plasma Supernatant ([3]; 500 ng/mL (high), -80 C freezer for 2 week): 110%
% Bucillamine Remaining in Beagle Dog Plasma Supernatant ([3]; 500 ng/mL (high), -80 C freezer for 4 week): 119%
% Bucillamine Remaining in Beagle Dog Plasma Supernatant ([3]; 500 ng/mL (high), bench top (RT) for 4 hours): 117%
% of the dose (unchanged drug) found in urine, on average ([4]; Leg 1: PO, single 30 mg/kg dose): 57.3±25.8%
% of the dose (unchanged drug) found in urine, on average [4, 7]: 54.5±6.63%
% of the dose (unchanged drug) found in urine, on average [4, 8]: 25.8±14.0%
% of the dose (unchanged drug) found in urine, on average [4, 9]: 16.1±5.65%
% of the dose (unchanged drug) found in urine, on average [4, 10]: 20.2±7.51%
share of the drug recovered in urine excreted within the first 4 hours ([4]; Q12H schedule, PO single 30 mg/kg dose, FIG. 22, n=2 dogs): 80%
reduction in target joint pain scores from baseline [5]: at least 50%
